Measured values from US20090054629A1, “Inhibitors of Transthyretin Amyloid Fibril Formation” (THE SCRIPPS RESEARCH INSTITUTE, priority 2005, published 2009).

Biological target: T1, WT-TTR (Homo sapiens, UniProt P02766)
T1 construct: TTR is a 127-residue β-sheet rich homotetramer; made in house; host or cells: Escherichia coli
Experiment: Acid-mediated (pH 4.4) TTR fibril formation assay (turbidity)
Type: biochemical
Conditions: inhibitor 7.2 μM, tetrameric TTR 3.6 μM, pH 4.4, 72 h
Protocol: The inhibitory activity of the oxime ethers (7.2 μM) against acid-mediated (pH 4.4) TTR (3.6 μM) amyloid formation is summarized in FIG. 10.
Wild type TTR was purified from an Escherichia coli expression system as described previously (Lashuel, H. A.; et al. Biochemistry 1999, 38, 13560-13573). Disposable cuvettes (Fisher #14 385 938) were charged with 495 μL of a 0.4 mg/mL stock of TTR (7.2 μM) in 10 mM phosphate (pH 7.2), 100 mM KCl, 1 mM EDTA, and 0.2% NaN3. 5 μL of the inhibitors in DMSO (1.44 mM) were added to the TTR solutions and the samples were incubated for 30 min at 37° C. The pH was then lowered to 4.4 by addition of 0.5 mL of 200 mM acetate buffer (pH 4.2, 100 mM KCI, 1 mM EDTA, 0.2% NaN3) to each cuvette. The cuvettes were left undisturbed for 72 h at 37° C., then vortexed to evenly distribute any precipitate throughout the sample. The turbidity was measured on a Hewlett Packard model 8453 UV-Vis Spectrophotometer at 350 and 400, or 500 nm. All samples were performed in duplicate or triplicate and results reported are representative examples of at least three analyses.
FIG. 4 is a table showing the activities of the 96 bisarylhydrazones that were tested for inhibition of fibril formation. Bisarylhydrazone activity (7.2 μM) against WT-TTR (3.6 μM) amyloid fibril formation at pH 4.4 (72 h). […]

Structure (SMILES): Oc1cc(Cl)cc(Cl)c1 [3,5-Dichlorophenol]
- inhibition at 7.2 µM: 86%
